Results: PMC4830539, “Chemical Inhibition of Histone Deacetylases 1 and 2 Induces Fetal Hemoglobin through Activation of GATA2” (PLoS ONE, 2016)

Tests used:
[1] = tested on: HBG mRNA; test: HBG mRNA (%) by QPCR in differentiating BM cells (CS1, CS2); format: cell-based, human
Protocol: (§1) CD34+ cells isolated from human bone marrow of healthy normal donors (Lonza, AllCells, or StemCell Technologies), referred to as BM cells throughout this work, were cultured using two distinct 2-phase culture systems. These systems have been described previously and are referred to as Culture System 1 (CS1) and Culture System 2 (CS2) throughout this work. CS1 expansion media is StemSpan SFEM (StemCell Technologies) supplemented with CC100 (StemCell Technologies), 100 U/mL penicillin and 100 μg/mL streptomycin. CC100 is a mix of Flt-3 ligand (FLT3LG), KIT ligand (KITLG), interleukin-3 (IL3), and interleukin-6 (IL6). CS1 differentiation media is StemSpan SFEM supplemented with 1 U/ml erythropoietin (EPO), 5 ng/mL IL3, 20 ng/mL KITLG, 2 μM dexamethasone, 1 μM beta-estradiol, 100 U/mL penicillin and 100 μg/mL streptomycin. CS2 expansion media is StemSpan SFEM supplemented with 1% glutamine, 40 μg/mL lipids (Sigma), 100 ng/mL KITLG, 10 ng/mL IL3, and 0.5 U/mL EPO. CS2 differentiation media is same as CS2 expansion media, except 3 U/mL EPO.
Globin mRNA was detected using quantitative real time PCR (QPCR). Total RNA was isolated using RNeasy Micro Kit (Qiagen) with on-column DNase digestion, converted into cDNA using the High Capacity RNA-to-cDNA Kit (Life Technologies), diluted 5-fold with water, and 1 μL used as a template for QPCR. The percent of each β-like globin transcript was determined using the absolute standard curve method. Briefly, DNA corresponding to the full length transcript for each globin isoform was cloned into […] plasmid (GenScript, Piscataway NJ). Each plasmid was validated against each QPCR probe to ensure specificity. Plasmids were pooled at equal molar concentration and a dilution series spanning 8-logs was utilized as the standard curve. Throughout this work, ‘HBG mRNA (%)’ and ‘percent HBG mRNA’ refers to the abundance of HBG mRNA expressed relative to the sum of the abundances of all β-like globin transcripts, i.e. [HBG/(HBB+HBD+HBG+HBE)]*100. In cases where the transcript of interest was compared against the housekeeping gene ACTB, the comparative Ct ([…]) method was utilized. Probes used for QPCR: HBB (Hs00747223_g1), HBD (Hs00426283_m1), HBG (Hs00361131_g1, detects both HBG1 and HBG2), HBE (Hs00362215_g1), GATA1 (Hs01085823_m1), GATA2 (Hs00231119_m1), KLF1 (Hs00610592_m1), MYB (Hs00920556_m1), SOX6 (Hs00264525_m1), BCL11A (Hs01093197_m1), and ACTB (Hs99999903_m1).
To evaluate the ability of ACY-957 to activate HBG, we utilized two distinct 2-phase culture systems, referred to as CS1 [24] and CS2 [21], to derive erythroid progenitors and erythroblasts from CD34+ human bone marrow cells (BM cells). […]

[2] = tested on: HbF protein; test: HbF protein by flow cytometry in BM cells (CS1, CS2); format: cell-based, human; conditions: for HbF positive cells / MFI of HbF positive cells: 1 μM ACY-957 or 30 μM hydroxyurea
Protocol: as §1
Flow cytometry was performed on a FC500 flow cytometer ([…]). Fetal hemoglobin protein was assayed using the Fetal Hemoglobin Test Kit (Life Technologies) according to manufacturer’s protocol. Samples were stained with FITC-conjugated mouse IgG1 anti-human HbF antibody (clone HbF-1, Life Technologies). Each sample was also stained with a FITC-conjugated mouse IgG1 isotype control antibody (clone X40, BD Biosciences) and used as a negative control. FETALtrol cells were used as positive controls (Trillium Diagnostics). TFRC and GYPA were detected on fresh cells by staining with 20 μL of PE-conjugated anti-human TFRC (clone M-A712, catalog 555537, BD Biosciences) and 0.5 μL of FITC- or APC-conjugated anti-human GYPA (clone GA-R2 (HIR2), catalog 559943 or 551336, BD Biosciences) in 200 μL PBS with 0.1% BSA for 40 min on ice. Forward and side scatter, or staining with 7AAD (catalog 559925, BD Biosciences), was used to identify viable cells.
To determine if the HBG mRNA induction observed in the presence of ACY-957 was associated with an increase in the HbF protein, CS1 and CS2 cells at day 5 were stained with a fluorescently conjugated anti-HbF antibody and evaluated by flow cytometry. HbF positive cells were increased by 2 to 3-fold upon treatment with ACY-957, which exceeded the response observed with hydroxyurea (Fig 2B and 2E).

[3] = design: method as in earlier work; conditions: mouse; cited from earlier work

## Nc1ccc(-c2cccs2)cc1NC(=O)c1ccc2nc(N3CCNCC3)ccc2c1 [ACY-957]
[1]; CS1, day 5, 1 μM
  HBG mRNA (%): 35%
[1]; CS1 and CS2, 1 μM
  each β-like globin mRNA relative to ACTB: significantly increased levels of HBE and HBG mRNA and decreased levels of HBD and HBB mRNA
[1]; CS1 and CS2, day 5, 1 μM
  increase of HBG level over vehicle treated controls: approximately 3.5 fold
[1]; CS2, day 5, 1 μM
  HBG mRNA (%): 24%
[2]; CS1, day 5
  HbF positive cells: 36%
  MFI of HbF positive cells: 36
[2]; CS1 and CS2, day 5, 1 μM
  increase of HbF positive cells: 2 to 3 fold
  increase of mean fluorescent intensity (MFI) of HbF positive cells: up to 2 fold
[2]; CS2, day 5
  HbF positive cells: 50%
  MFI of HbF positive cells: 20
[3]
  pharmacokinetic properties: favorable
